Measured values from patent US12594227B2, “Tetrapeptide and compositions comprising tetrapeptides” (THE BOOTS COMPANY PLC, priority 2020, dated 2026).
The star is where a group is joined. Palmitoyl = CCCCCCCCCCCCCCCC(=O)*

Key:
[1] = system: Decorin; assay: ELISA assay of decorin in culture supernatant of human dermal fibroblasts; type: cell-based; conditions: 5 ppm peptide; normal human dermal fibroblasts; 72 hours; ELISA weighted to viable cells
Method: (§1) An ELISA is an immunological assay commonly used to measure presence and abundance of a specific proteins (antibodies, antigens, proteins and glycoproteins) in biological samples. In this case ELISAs are being used to quantify the expression of dermal extracellular proteins collagen-1, decorin, and fibronectin. The quantity of collagen I is evaluated via the quantity of PIP (“carboxU-terminal pro-peptide of procollagen type I”) which is a peptide fragment resulting from the enzymatic degradation of procollagen present outside the fibroblast in the culture supernatant medium. […]
(§2) Normal human dermal fibroblasts cells (HDFs) were cultured in contact with the tetrapeptides of the present invention, or composition without the peptide (negative control), for 72 hours. Thereafter the cultured supernatants were removed, and the quantity of dermal extracellular proteins determined using an ELISA assay for the protein of interest. For the ELISA quantification, cell viability was calculated using Hoechst staining allowing the quantity of dermal proteins to be weighted to the number of viable cells.
(§3) The effect of the QTAV tetrapeptide on ECM protein expression by fibroblasts as measured by ELISA (column 1) versus tetrapeptide not conforming to the QTAV structure (column 2) are presented in the table below (table 1). Results are expressed as % increase versus the negative control.

[2] = system: Fibronectin; assay: ELISA assay of fibronectin in culture supernatant of human dermal fibroblasts; type: cell-based; conditions: 5 ppm peptide; normal human dermal fibroblasts; 72 hours; ELISA weighted to viable cells
Method: as §1, §2, §3

[3] = system: Fibrillin-1; assay: Immunofluorescence of Fibrillin-1 fibre abundance in primary human dermal fibroblasts; type: cell-based; conditions: HDF cells, 5 days
Method: Immunofluorescence relies on the use of antibodies to label a specific protein with a fluorescent dye such as fluorescein isothiocyanate (FITC). In the following experiments, indirect immunofluorescence is used where a primary antibody first recognises and attaches to the specific protein, in this case fibrillin-1, and then a secondary antibody conjugated with FITC directed against the primary antibody is used for detection.
For all experiments, the control liquid stock was prepared by dissolving the powdered peptides in DMSO (Dimethyl Sulfoxide solvent). Peptide powders were dissolved in DMSO at recommended part per million concentrations and then further diluted in the cell culture medium and combined to obtain the desired peptide ratio.
Fibrillin-1 expression was determined using immunofluorescence. Primary human dermal fibroblast (I-IDF) cells were purchased from Promo Cell and came from a donor. […]
The antibody binding to Fibrillin-1 fibres was visualised using a Nikon Eclipse 100 microscope fluorescence setting using an excitation lens for fluorescein isothiocyanate (FITC). […] ImageJ software was used to quantify the Fibrillin-1 fibre abundance and coverage in each image using a threshold of 235 measuring the fibre density.
Results are expressed as a percentage increase in fibrillin abundance compared to untreated control. […]

[4] = system: Collagen 1 (PIP); assay: ELISA assay of collagen I (via PIP) in culture supernatant of human dermal fibroblasts; type: cell-based; conditions: 5 ppm peptide; normal human dermal fibroblasts; 72 hours; ELISA weighted to viable cells
Method: as §1, §2
The quantity of collagen I is evaluated using the quantity of PIP (“carboxU-terminal pro-peptide of procollagen type I”) which is a peptide fragment resulting from the enzymatic degradation of procollagen present outside the fibroblast in the culture supernatant medium. […]

[5] = system: LGALS3; assay: LC-MS/MS relative protein abundance in secretome/matrisome of HDFs: LGALS3; type: cell-based, human; conditions: 8 ppm peptide, seven-day culture
Method: (§4) Following incubation with the peptides, liquid chromatography tandem mass spectrometry (LC-MS/MS) was used to quantify the relative abundance differences between proteins identified in the secretome/matrisome, versus an untreated control. HDFs from a donor, plated at 50,000 cells per well, were cultured with either peptide dissolved in cell culture media to achieve a final concentration of 8 ppm or with media without any peptide as a negative control. Treated and control cells were tested in triplicate. The cells were cultured as normal for five days in serum-supplemented media and then for a further two days in serum-free media (seven-day culture in total). The cell media containing the secretome (the proteins secreted by the cell) and the ECM, decellularized by incubation with EDTA (ethylenediaminetetraacetic acid), containing the matrisome (the collection of ECM associated proteins) were collected. The combined secretome and the matrisome compartments were subsequently analysed by LC-MS/MS using the following protocol.
(§5) Proteins were denatured (in urea), reduced (in dithiothreitol) and mechanically disassociated (using ultrasonication) prior to overnight digestion with trypsin (SMART Digest™ trypsin kit; Thermo Fisher). After digestion, samples were cleaned of contaminants up by removal of organic molecules and surfactants using biphasic extraction and desalted using OLIGO™ R3 Reversed Phase Resin (Thermo Fisher).
(§6) Samples (200 ng) were ran on an UltiMate® 3000 Rapid Separation Liquid Chromatographer coupled to a Q Exactive™ Hybrid Quadrupole-Orbitrap™ Mass Spectrometer for 90-minutes per sample run. Spectral data was searched again the Uniprot Human proteome database using Mascot v2.5.1. Subsequent protein identification and data-dependent quantification was performed using Progenesis QI. Normalised protein abundances were compared between each peptide treatment and control. Statistical analysis was performed within Progenesis QI using a between sample ANOVA.
(§7) The mass spectrometry data for each peptide is shown below in table 3 and FIG. 1. […] These protein families were as follows: proteoglycans, UV DNA repair proteins, basement membrane protein and cell-adhesion proteins; functional protein families with a potentially important role in dermal repair and remodelling.
(§8) The results of the above mass spectrometry experiments wherein a range of tetrapeptides are applied to HDFs to elicit a response in the expression of dermal extracellular proteins are provided in table 3 below. The protein family which the protein belongs to is also shown. Mass spectrometry results using peptide sequences, according to the invention (column 1) and not according to the present invention (columns 2, 3 and 4), are also presented within the table for comparison.

[6] = system: proteoglycans, UV DNA repair proteins, basement membrane protein and cell-adhesion proteins; assay: LC-MS/MS protein families overview (bubble plot FIG. 1) in HDFs; type: cell-based, human; conditions: 8 ppm peptide, result in words
Method: as §4, with “protocol. […]” for “protocol.”
Samples (200 ng) were ran on an UltiMate® 3000 Rapid Separation Liquid Chromatographer coupled to a Q Exactive™ Hybrid Quadrupole-Orbitrap™ Mass Spectrometer for 90-minutes per sample run. […] Subsequent protein identification and data-dependent quantification was performed using Progenesis QI. […]

[7] = system: CDH2; assay: LC-MS/MS relative protein abundance in secretome/matrisome of HDFs: CDH2; type: cell-based, human; conditions: 8 ppm peptide, seven-day culture
Method: as §4, §5, §6, §7, §8

[8] = system: CSPG2; assay: LC-MS/MS relative protein abundance in secretome/matrisome of HDFs: CSPG2; type: cell-based, human; conditions: 8 ppm peptide, seven-day culture
Method: as §4, §5, §6, §7, §8

[9] = system: LAMB2; assay: LC-MS/MS relative protein abundance in secretome/matrisome of HDFs: LAMB2; type: cell-based, human; conditions: 8 ppm peptide, seven-day culture
Method: as §4, §5, §6, §7, §8

[10] = system: RAD23A; assay: LC-MS/MS relative protein abundance in secretome/matrisome of HDFs: RAD23A; type: cell-based, human; conditions: 8 ppm peptide, seven-day culture
Method: as §4, §5, §6, §7, §8

[11] = system: NID1; assay: LC-MS/MS relative protein abundance in secretome/matrisome of HDFs: NID1; type: cell-based, human; conditions: 8 ppm peptide, seven-day culture
Method: as §4, §5, §6, §7, §8

## Pal-GYIL-OH
[1]
  Decorin, % increase versus the negative control: +2%
[2]
  Fibronectin, % increase versus the negative control: −23%
[3]; 10 ppm peptide
  Fibrillin-1, percentage increase in fibrillin abundance compared to untreated control: +3%
[4]
  Collagen 1 (PIP), % increase versus the negative control: −4%

## Pal-QTAV-OH (Palmitoyl-QTAV-OH; SMILES CCCCCCCCCCCCCCCC(=O)N[C@@H](CCC(N)=O)C(=O)N[C@H](C(=O)N[C@@H](C)C(=O)N[C@H](C(=O)O)C(C)C)[C@@H](C)O) [palmitoyl tetrapeptide Gln-Thr-Ala-Val with free C-terminal OH, according to the invention]
[1]
  Decorin, % increase versus the negative control: +33%
[5]
  LGALS3 (Cell adhesion) protein enhanced versus untreated control: 32%
[6]; FIG. 1 bubble plot
  enhancement of protein families (proteoglycans, UV DNA repair proteins, basement membrane proteins, cell adhesion proteins): the only sequence to significantly enhance
[6]; HDFs, LC-MS/MS
  protein synthesis in comparison to the control: overall enhancement of protein synthesis
[7]
  CDH2 (Cell adhesion) protein enhanced versus untreated control: 69%
[8]
  CSPG2 (Proteoglycans) protein enhanced versus untreated control: 31%
[2]
  Fibronectin, % increase versus the negative control: +87%
[9]
  LAMB2 (Basement membrane) protein enhanced versus untreated control: 27%
[10]
  RAD23A (UV DNA repair) protein enhanced versus untreated control: 230%
[3]; 12.5 ppm peptide
  Fibrillin-1, percentage increase in fibrillin abundance compared to untreated control: +84%
[4]
  Collagen 1 (PIP), % increase versus the negative control: +59%
[11]
  NID1 (Basement membrane) protein enhanced versus untreated control: 32%

## Pal-LSPD-OH
[5]
  LGALS3 (Cell adhesion) protein enhanced versus untreated control: 5%
[7]
  CDH2 (Cell adhesion) protein enhanced versus untreated control: 39%
[8]
  CSPG2 (Proteoglycans) protein enhanced versus untreated control: 5%
[9]
  LAMB2 (Basement membrane) protein enhanced versus untreated control: 40%
[10]
  RAD23A (UV DNA repair) protein enhanced versus untreated control: 5%
[11]
  NID1 (Basement membrane) protein enhanced versus untreated control: 27%

## Pal-LSPG-OH
[5]
  LGALS3 (Cell adhesion) protein enhanced versus untreated control: 24%
[7]
  CDH2 (Cell adhesion) protein enhanced versus untreated control: 10%
[8]
  CSPG2 (Proteoglycans) protein enhanced versus untreated control: <1%
[9]
  LAMB2 (Basement membrane) protein enhanced versus untreated control: 22%
[10]
  RAD23A (UV DNA repair) protein enhanced versus untreated control: 94%
[11]
  NID1 (Basement membrane) protein enhanced versus untreated control: 6.60%^

## Pal-GPSG-OH
[5]
  LGALS3 (Cell adhesion) protein enhanced versus untreated control: 2%
[7]
  CDH2 (Cell adhesion) protein enhanced versus untreated control: 85%
[8]
  CSPG2 (Proteoglycans) protein enhanced versus untreated control: 20%
[9]
  LAMB2 (Basement membrane) protein enhanced versus untreated control: 25%
[10]
  RAD23A (UV DNA repair) protein enhanced versus untreated control: 51%
[11]
  NID1 (Basement membrane) protein enhanced versus untreated control: 28%
